# Measured values taken from PubChem BioAssay (NCI).
#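 Cells were grown in 96-well plates and exposed to each compound for 48 hours at five concentrations; endpoints were interpolated linearly between bracketing concentrations, or set to the highest concentration if not reached. GI50 marks 50% less growth. TGI denotes the concentration required for complete inhibition of growth.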
# Experiments:
# Experiment in all cases: inhibition of tumour cell growth, NCI panel, 48 h
# [1] = test system: 786-0 renal
# [2] = test system: A498 renal
# [3] = test system: A549 NSCLC
# [4] = test system: ACHN renal
# [5] = test system: BT-549 breast
# [6] = test system: CAKI-1 renal
# [7] = test system: CCRF-CEM leukemia
# [8] = test system: COLO 205 colon
# [9] = test system: DU-145 prostate
# [10] = test system: EKVX NSCLC
# [11] = test system: HCC-2998 colon
# [12] = test system: HCT-116 colon
# [13] = test system: HCT-15 colon
# [14] = test system: HL-60(TB) leukemia
# [15] = test system: HOP-62 NSCLC
# [16] = test system: HOP-92 NSCLC
# [17] = test system: HS 578T breast
# [18] = test system: HT29 colon
# [19] = test system: IGROV1 ovarian
# [20] = test system: K-562 leukemia
# [21] = test system: KM12 colon
# [22] = test system: LOX IMVI melanoma
# [23] = test system: M14 melanoma
# [24] = test system: MALME-3M melanoma
# [25] = test system: MCF7 breast
# [26] = test system: MDA-MB-231 breast
# [27] = test system: MDA-MB-435
# [28] = test system: MDA-MB-468 breast
# [29] = test system: MOLT-4 leukemia
# [30] = test system: NCI-H226 lung
# [31] = test system: NCI-H23 lung
# [32] = test system: NCI-H460 lung
# [33] = test system: NCI-H522 lung
# [34] = test system: OVCAR-3 ovarian
# [35] = test system: OVCAR-4 ovarian
# [36] = test system: OVCAR-5 ovarian
# [37] = test system: OVCAR-8 ovarian
# [38] = test system: PC-3 prostate
# [39] = test system: RPMI-8226 leukemia
# [40] = test system: RXF 393 renal
# [41] = test system: SF-268 CNS
# [42] = test system: SF-295 CNS
# [43] = test system: SF-539 CNS
# [44] = test system: SK-MEL-2 melanoma
# [45] = test system: SK-MEL-28 melanoma
# [46] = test system: SK-MEL-5 melanoma
# [47] = test system: SK-OV-3 ovarian
# [48] = test system: SN12C renal
# [49] = test system: SNB-19 CNS
# [50] = test system: SR leukemia
# [51] = test system: SW-620 colon
# [52] = test system: T-47D breast
# [53] = test system: TK-10 renal
# [54] = test system: U251 CNS
# [55] = test system: UACC-257 melanoma
# [56] = test system: UACC-62 melanoma
# [57] = test system: UO-31 renal
# [58] = test system: NCI/ADR-RES ovarian
# [59] = test system: SNB-75 CNS
smiles,measurement,setting,value
Cn1cc(-c2cc(N)n3nc(-c4c[nH]c5ccc(F)cc45)cc3n2)c2cccnc21,GI50,[1],1.64 µM
same,TGI,[1],3.11 µM
same,GI50,[2],17 µM
same,TGI,[2],30.9 µM
same,GI50,[3],2.48 µM
same,TGI,[3],7.91 µM
same,GI50,[4],1.71 µM
same,TGI,[4],3.23 µM
same,GI50,[5],12.8 µM
same,TGI,[5],28.1 µM
same,GI50,[6],2.21 µM
same,TGI,[6],6.42 µM
same,GI50,[7],2.35 µM
same,TGI,[7],7.74 µM
same,GI50,[8],1.78 µM
same,TGI,[8],3.46 µM
same,GI50,[9],2.06 µM
same,TGI,[9],4.4 µM
same,GI50,[10],3.47 µM
same,TGI,[10],14.9 µM
same,GI50,[11],1.79 µM
same,TGI,[11],3.33 µM
same,GI50,[12],1.9 µM
same,TGI,[12],3.6 µM
same,GI50,[13],1.82 µM
same,TGI,[13],4.14 µM
same,GI50,[14],1.9 µM
same,TGI,[14],4.71 µM
same,GI50,[15],8.69 µM
same,TGI,[15],21.2 µM
same,GI50,[16],14.2 µM
same,TGI,[16],39 µM
same,GI50,[17],16.9 µM
same,TGI,[17],54.2 µM
same,GI50,[18],1.91 µM
same,TGI,[18],3.85 µM
same,GI50,[19],2.24 µM
same,TGI,[19],5.39 µM
same,GI50,[20],3.42 µM
same,TGI,[20],28.3 µM
same,GI50,[21],2.5 µM
same,TGI,[21],6.26 µM
same,GI50,[22],1.8 µM
same,TGI,[22],3.29 µM
same,GI50,[23],1.88 µM
same,TGI,[23],4.01 µM
same,GI50,[24],1.75 µM
same,TGI,[24],3.59 µM
same,GI50,[25],2.01 µM
same,TGI,[25],4.19 µM
same,GI50,[26],1.92 µM
same,TGI,[26],3.7 µM
same,GI50,[27],1.92 µM
same,TGI,[27],4.18 µM
same,GI50,[28],1.66 µM
same,TGI,[28],3.27 µM
same,GI50,[29],2.42 µM
same,TGI,[29],7.73 µM
same,GI50,[30],1.92 µM
same,TGI,[30],4 µM
same,GI50,[31],2.52 µM
same,TGI,[31],7.67 µM
same,GI50,[32],1.8 µM
same,TGI,[32],3.61 µM
same,GI50,[33],13.8 µM
same,TGI,[33],27.4 µM
same,GI50,[34],1.82 µM
same,TGI,[34],3.69 µM
same,GI50,[35],11.6 µM
same,TGI,[35],30 µM
same,GI50,[36],3.33 µM
same,TGI,[36],13.4 µM
same,GI50,[37],3.18 µM
same,TGI,[37],11 µM
same,GI50,[38],3.26 µM
same,TGI,[38],13.4 µM
same,GI50,[39],2.43 µM
same,TGI,[39],7.74 µM
same,GI50,[40],1.77 µM
same,TGI,[40],3.35 µM
same,GI50,[41],11.6 µM
same,TGI,[41],39.6 µM
same,GI50,[42],1.69 µM
same,TGI,[42],3.17 µM
same,GI50,[43],1.78 µM
same,TGI,[43],3.25 µM
same,GI50,[44],12.6 µM
same,TGI,[44],25.2 µM
same,GI50,[45],1.7 µM
same,TGI,[45],3.17 µM
same,GI50,[46],11.6 µM
same,TGI,[46],24.1 µM
same,GI50,[47],18.1 µM
same,TGI,[47],39.2 µM
same,GI50,[48],13.1 µM
same,TGI,[48],26.2 µM
same,GI50,[49],4.05 µM
same,TGI,[49],16.2 µM
same,GI50,[50],2.8 µM
same,TGI,[50],> 100 µM
same,GI50,[51],1.83 µM
same,TGI,[51],3.78 µM
same,GI50,[52],2.9 µM
same,TGI,[52],13.2 µM
same,GI50,[53],2.95 µM
same,TGI,[53],11.1 µM
same,GI50,[54],2 µM
same,TGI,[54],4.1 µM
same,GI50,[55],14.8 µM
same,TGI,[55],28 µM
same,GI50,[56],1.77 µM
same,TGI,[56],3.34 µM
same,GI50,[57],1.66 µM
same,TGI,[57],3.24 µM
COc1ccc(CCC2NCCc3c(Br)c4c(c(OC)c32)OCO4)cc1 (stereo not given),GI50,[1],9.75 µM
same,TGI,[1],> 55.8 µM
same,GI50,[2],29 µM
same,TGI,[2],> 55.8 µM
same,GI50,[3],4.01 µM
same,TGI,[3],> 55.8 µM
same,GI50,[4],8.23 µM
same,TGI,[4],> 55.8 µM
same,GI50,[5],7.45 µM
same,TGI,[5],25.5 µM
same,GI50,[6],3.08 µM
same,TGI,[6],> 55.8 µM
same,GI50,[7],6.76 µM
same,TGI,[7],37.3 µM
same,GI50,[8],2.84 µM
same,TGI,[8],11.8 µM
same,GI50,[9],15.9 µM
same,TGI,[9],> 55.8 µM
same,GI50,[10],11.5 µM
same,TGI,[10],> 55.8 µM
same,GI50,[11],6.82 µM
same,TGI,[11],15.5 µM
same,GI50,[12],1.84 µM
same,TGI,[12],> 55.8 µM
same,GI50,[13],3.53 µM
same,TGI,[13],> 55.8 µM
same,GI50,[14],2.44 µM
same,TGI,[14],17.7 µM
same,GI50,[15],2.68 µM
same,TGI,[15],> 55.8 µM
same,GI50,[16],2.69 µM
same,TGI,[16],18.2 µM
same,GI50,[17],6.63 µM
same,TGI,[17],28.3 µM
same,GI50,[18],1.77 µM
same,TGI,[18],8.33 µM
same,GI50,[19],3.92 µM
same,TGI,[19],44.6 µM
same,GI50,[20],1.84 µM
same,TGI,[20],> 55.8 µM
same,GI50,[21],2.82 µM
same,TGI,[21],> 55.8 µM
same,GI50,[22],6.31 µM
same,TGI,[22],14.5 µM
same,GI50,[23],2.05 µM
same,TGI,[23],> 55.8 µM
same,GI50,[24],4.98 µM
same,TGI,[24],13.5 µM
same,GI50,[25],7.13 µM
same,TGI,[25],26.6 µM
same,GI50,[26],2.08 µM
same,TGI,[26],15.5 µM
same,GI50,[28],4.45 µM
same,TGI,[28],15.9 µM
same,GI50,[29],4.46 µM
same,TGI,[29],> 55.8 µM
same,GI50,[30],6.71 µM
same,TGI,[30],> 55.8 µM
same,GI50,[31],6.79 µM
same,TGI,[31],38.1 µM
same,GI50,[32],2.77 µM
same,TGI,[32],21.7 µM
same,GI50,[33],1.72 µM
same,TGI,[33],10.1 µM
same,GI50,[58],6.99 µM
same,TGI,[58],28.4 µM
same,GI50,[34],3.37 µM
same,TGI,[34],29.8 µM
same,GI50,[35],12.6 µM
same,TGI,[35],> 55.8 µM
same,GI50,[36],3.28 µM
same,TGI,[36],36.8 µM
same,GI50,[37],11.1 µM
same,TGI,[37],> 55.8 µM
same,GI50,[38],6.16 µM
same,TGI,[38],> 55.8 µM
same,GI50,[39],2.23 µM
same,TGI,[39],15.9 µM
same,GI50,[40],7.57 µM
same,TGI,[40],39.4 µM
same,GI50,[41],12.5 µM
same,TGI,[41],> 55.8 µM
same,GI50,[42],2.36 µM
same,TGI,[42],41.6 µM
same,GI50,[43],6 µM
same,TGI,[43],14.3 µM
same,GI50,[44],2.99 µM
same,TGI,[44],16.5 µM
same,GI50,[45],2.5 µM
same,TGI,[45],12.6 µM
same,GI50,[46],3.64 µM
same,TGI,[46],11.9 µM
same,GI50,[47],10.5 µM
same,TGI,[47],> 55.8 µM
same,GI50,[48],5.1 µM
same,TGI,[48],42.7 µM
same,GI50,[49],11.1 µM
same,TGI,[49],> 55.8 µM
same,GI50,[59],7.93 µM
same,TGI,[59],35.3 µM
same,GI50,[50],2.33 µM
same,TGI,[50],31.2 µM
same,GI50,[51],1.76 µM
same,TGI,[51],9.77 µM
same,GI50,[52],4.78 µM
same,TGI,[52],27.3 µM
same,GI50,[53],11.8 µM
same,TGI,[53],> 55.8 µM
same,GI50,[54],10.7 µM
same,TGI,[54],> 55.8 µM
same,GI50,[55],9.2 µM
same,TGI,[55],> 55.8 µM
same,GI50,[56],1.34 µM
same,TGI,[56],3.98 µM
same,GI50,[57],7.85 µM
same,TGI,[57],> 55.8 µM
